Format in all cases: cell-based
In test [1] the test system is ERα+ breast cancer cell lines (MCF7, T47D, UCD12), including those with ESR1 mutations (Y537S, D538G). The test is described as follows: 2D culture proliferation, all lines, Example 29. The conditions noted are these: 2D cultures, estrogen-containing media, 0.02-5 μM, across all lines; p<0.0001 vs. vehicle. From the text:
(§1) Approximately 80% of breast cancers express estrogen receptor alpha (ERα, ESR1) which drives cancer progression. […] (Z)-Endoxifen (ENDX), an active metabolite of tamoxifen, is a potent orally bioavailable selective estrogen receptor modulator with a favorable safety profile now under development for breast health applications. Its synthesis yields endoxifen-related byproduct new chemical entities (NCE), including Compound 7b, Compound 7a, Compound 5b and Compound 5a. This study compared the anti-estrogenic effects of these compounds to (Z)-endoxifen in ERα+ breast cancer cell lines (MCF7, T47D, UCD12), including those with ESR1 mutations (Y537S, D538G) linked to endocrine resistance.

Test [2] relates to MCF7 cells. The test is described as follows: 2D culture proliferation, MCF7. The following applies: 2D cultures, estrogen-containing media.
Excerpt: as §1

The subject of the next test is UCD12 cells. The test is described as follows: 2D culture proliferation, UCD12. The conditions noted are these: 2D cultures, estrogen-containing media.
Excerpt: as §1

Test [3] relates to T47D cells with Y537S or D538G mutations. The test is described as follows: Proliferation, T47D ESR1 mutants.
Excerpt: as §1

In test [4] the test system is ERα+ breast cancer cell lines in 3D cultures. The test is described as follows: 3D culture cancer cell proliferation. The following applies: ~1 μM.
Excerpt: as §1

Test [5] relates to ERα+ breast cancer cell lines. Description: Cell cycle arrest, Example 29.
Excerpt: as §1

For test [6], the system named is T47D cells. Description: Apoptosis induction, T47D, Example 29. The conditions noted are these: for apoptosis induction in T47D cells: p<0.0001 vs. vehicle.
For test [7], the system named is ERα+ breast cancer cell lines. Description: RT-qPCR analysis. The following applies: 0.1 μM.
For a further test, the system named is T47D cancer cells. The test is described as follows: Cell migration (scratch-wound) assay, Example 20. The conditions noted are these: high doses (FIGS. 58, 60, 62); 0 to 100 hours. On the procedure:
This example covers cell migration assays with endoxifen and multiple endoxifen-related compounds on T47D cancer cells. FIGS. 52A, 53A, 54A, 55A, and 56A are plots of relative wound density following treatment with vehicle or 0.02 to 6 μM endoxifen (FIG. 52A), Compound 5b (FIG. 53A), Compound 5a (FIG. 54A), Compound 7a (FIG. 55A), and Compound 7b (FIG. 56A) as a function of time (0 to 100 hours). FIGS. 52B, 53B, 54B, 55B, and 56B are plots of wound width following treatment with vehicle or 0.02 to 6 μM endoxifen (FIG. 52B), Compound 5b (FIG. 53B), Compound 5a (FIG. 54B), Compound 7a (FIG. 55B), and Compound 7b (FIG. 56B) as a function of time (0 to 100 hours). FIGS. 52C, 53C, 54C, 55C, and 56C are series of plots of individual replicates of relative wound density and wound width for endoxifen, Compound 5b, Compound 5a, Compound 7a, and Compound 7b, respectively. FIG. 57 is a plot of relative wound density over time (0 to 100 hours) for a wound treated with vehicle (DMSO), 5 μM endoxifen, 5 μM Compound 5b, and 5 μM Compound 5a. FIG. 58 is a plot of relative wound density over time (0 to 100 hours) for a wound treated with vehicle (DMSO), 5 μM endoxifen, 5 μM Compound 7a, and 5 μM Compound 7b. FIG. 59 is a plot of relative wound density over time (0 to 100 hours) for a wound treated with vehicle (DMSO), 2.5 μM endoxifen, 2.5 μM Compound 5b, and 2.5 μM Compound 5a. […]

The test system of test [8] is estrogen-induced and ERα-mediated activation of an estrogen response element (ERE) luciferase reporter construct in ER+ T47D cells. The test is described as follows: Luciferase (ERE reporter) agonist/antagonist assay, ER+ cells. The conditions noted are these: CSS+E2 media.
In test [9] the test system is MCF7 cells. Description: Scratch-wound cell migration assay, Example 24, MCF7. The following applies: highest dose examined (5 μM). On the procedure: (§2) This example covers cell migration assays with endoxifen and endoxifen-related compounds. Scratch-wound density and width measurements were tracked for 70 to 100 hours in MCF7 and T47D samples following treatment with a compound. […] FIG. 75 is a series of images of masked and unmasked wounds from the cell migration assays, with the rightmost figure showing invadopodia in cells within wound sites. In FIGS. 76-85, subfigure A is a plot of relative wound density, subfigure B is a plot of wound width, and subfigure C is a series of representative wound images from Day 3 or 4 of treatment. FIGS. 76-85 correspond to endoxifen treatment of MCF7 samples (FIG. 76), endoxifen treatment of T47D samples (FIG. 77), Compound 5b treatment of MCF7 samples (FIG. 78), Compound 5b treatment of T47D samples (FIG. 79), Compound 5a treatment of MCF7 samples (FIG. 80), Compound 5a treatment of T47D samples (FIG. 81), Compound 7b treatment of MCF7 samples (FIG. 82), Compound 7b treatment of T47D samples (FIG. 83), Compound 7a treatment of MCF7 samples (FIG. 84), and Compound 7a treatment of T47D samples (FIG. 85), respectively. […]
(§3) Migration inhibition was primarily detected at the highest tested dose (5 μM), which may be due to the fact that MCF7 and T47D cells are not migratory in nature under normal conditions. […]

Test [10] deals with T47D cells. Description: Scratch-wound cell migration assay, Example 24, T47D. The conditions noted are these: highest dose examined (5 μM). Here is the method: as §2, §3
The test system of test [11] is T47D cells. The test is described as follows: Anti-invasion (scratch wound) assay, Example 25. The conditions noted are these: 1.25, 2.5, 5 μM. From the text:
This example covers anti-invasion, apoptosis, and toxicity assays for various endoxifen-related compounds against multiple cancer cell lines. FIGS. 90A-F are plots that summarize results of proliferation assays for multiple cancer cell lines (MCF7, T47D, UCD4, and UCD12) in the presence of varying doses of endoxifen and multiple endoxifen-related compounds. FIGS. 91A-C are plots that summarize results of wound confluence measurements from scratch wound assays on T47D cells in the presence of 1.25 μM (FIG. 91A), 2.5 μM (FIG. 91B), and 5 μM (FIG. 91C) endoxifen and multiple endoxifen-related compounds. FIGS. 92A-C are plots that summarize results of wound density measurements from scratch wound assays on T47D cells in the presence of 1.25 μM (FIG. 92A), 2.5 μM (FIG. 92B), and 5 μM (FIG. 92C) endoxifen and multiple endoxifen-related compounds. FIGS. 93A-C are plots that summarize results of wound confluence measurements from scratch wound assays on MCF7 cells in the presence of 1.25 μM (FIG. 93A), 2.5 μM (FIG. 93B), and 5 μM (FIG. 93C) endoxifen and multiple endoxifen-related compounds. FIGS. 94A-C are plots that summarize results of wound density measurements from scratch wound assays on MCF7 cells in the presence of 1.25 μM (FIG. 94A), 2.5 μM (FIG. 94B), and 5 μM (FIG. 94C) endoxifen and multiple endoxifen-related compounds. […]

The subject of test [12] is T47D cells. The test is described as follows: 2D culture proliferation, T47D. The following applies: estrogen-deficient conditions.
Excerpt: as §1

The test system of test [13] is MCF7 cells. Description: Migration and invasion inhibition assays, MCF7. The following applies: p<0.0001.
For test [14], the system named is T47D cells. Description: Migration and invasion inhibition assays, T47D. The conditions noted are these: p<0.0001.

Molecules are shown by their SMILES.

In the case of `CC/C(=C(\c1ccc(O)cc1)c1ccc(OCCNC)cc1)c1ccccc1` [(Z)-endoxifen, (Z)-Endoxifen, reference compound], the “anti-proliferative effect, inhibition” value in [1] is recorded as 20-90%. Besides, the “anti-proliferative effect, ranking” value in the test with MCF7 cells [2] and with UCD12 cells was “strongest effects” in each case. The “potency, ranking” value in [3] is reported as “most potent”. The “potency in 3D cultures, ranking” value in test [4] is listed as “comparable, superior potency”. For the same molecule, in test [5], the “G1 cell cycle arrest” value is recorded as “most effective”. In addition, in the test on T47D cells [6], the “apoptosis induction in T47D cells, ranking” value is on record as “superior activity”. Moreover, the “apoptosis induction in T47D cells” value in the test with T47D cells [6] is “significantly induced”. Moreover, the “RT-qPCR analysis, potency ranking” value in test [7] is reported as “most potent”.

On to `CC/C(=C(/c1ccc(O)cc1)c1ccc(OCCN(C)C(C)=O)cc1)c1ccccc1` [Compound 7b], for which the “potency at inhibiting the migration and proliferation of T47D cells compared with endoxifen” value in the test on T47D cancer cells is listed as “greater potency than endoxifen”. Besides, the “anti-proliferative effects in ER+ cells compared with endoxifen” value in test [8] is “closely resemble that of endoxifen”. The “potency at inhibiting the migration and proliferation compared with endoxifen” value in the test with MCF7 cells [9] and in the test with T47D cells [10] was “more potent than endoxifen” throughout. Moreover, the “potency at inhibiting the invasion of T47D cells compared with endoxifen” value in the test with T47D cells [11] is given as “more potent than endoxifen”. Besides, the “anti-proliferative activity compared with (Z)-endoxifen” value in the test on T47D cells [12] is “more effective”. Also, the “migration and invasion inhibition compared with (Z)-endoxifen” value in the test on MCF7 cells [13] and in the test with T47D cells [14] was “consistently outperformed (Z)-endoxifen” each time. Further, the “apoptosis induction in T47D cells” value in the test on T47D cells [6] is recorded as “significantly induced”.
